Legend:
Assay in all cases: relative viability (nuclei count vs DMSO), 5 days (fraction); higher = more cells survive
Quizartinib + Lapatinib = compound: CC(C)(C)c1cc(NC(=O)Nc2ccc(-c3cn4c(n3)sc3cc(OCCN5CCOCC5)ccc34)cc2)no1 [Quizartinib] + CS(=O)(=O)CCNCc1ccc(-c2ccc3ncnc(Nc4ccc(OCc5cccc(F)c5)c(Cl)c4)c3c2)o1 [Lapatinib] (partner 2 µM)
Summary of the method: (§1)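 Five library-drug doses in √10 steps were combined with a fixed anchor-drug dose, or a single drug was given alone, by pin tool to lung cancer cell lines in 1536-well plates the day after seeding. Nuclei were stained and counted after 5 days. Relative viability is the nuclei count in treated wells over that in vehicle wells, taken as the median of duplicate plates.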

YM155 + Tozasertib = compound: COCC[n+]1c2c(n(Cc3cnccn3)c1C)C(=O)c1ccccc1C2=O [YM155] + Cc1cc(Nc2cc(N3CCN(C)CC3)nc(Sc3ccc(NC(=O)C4CC4)cc3)n2)n[nH]1 [Tozasertib] (partner 0.1 µM)
Summary of the method: as §1

YM155 + Alpelisib = compound: COCC[n+]1c2c(n(Cc3cnccn3)c1C)C(=O)c1ccccc1C2=O [YM155] + Cc1nc(NC(=O)N2CCC[C@H]2C(N)=O)sc1-c1ccnc(C(C)(C)C(F)(F)F)c1 [Alpelisib] (partner 2 µM)
Summary of the method: as §1

YM155 + Olaparib = compound: COCC[n+]1c2c(n(Cc3cnccn3)c1C)C(=O)c1ccccc1C2=O [YM155] + O=C(c1cc(Cc2n[nH]c(=O)c3ccccc23)ccc1F)N1CCN(C(=O)C2CC2)CC1 [Olaparib] (partner 8 µM)
Summary of the method: as §1

Cell Line	relative viability (Quizartinib + Lapatinib; first compound 0.001 µM)	relative viability (Quizartinib + Lapatinib; first compound 0.003162 µM)	relative viability (Quizartinib + Lapatinib; first compound 0.01 µM)	relative viability (Quizartinib + Lapatinib; first compound 0.03162 µM)	relative viability (Quizartinib + Lapatinib; first compound 0.1 µM)	relative viability (YM155 + Tozasertib; first compound 0.002 µM)	relative viability (YM155 + Tozasertib; first compound 0.006325 µM)	relative viability (YM155 + Tozasertib; first compound 0.02 µM)	relative viability (YM155 + Tozasertib; first compound 0.06325 µM)	relative viability (YM155 + Alpelisib; first compound 0.002 µM)	relative viability (YM155 + Alpelisib; first compound 0.02 µM)	relative viability (YM155 + Alpelisib; first compound 0.06325 µM)	relative viability (YM155 + Olaparib; first compound 0.002 µM)	relative viability (YM155 + Olaparib; first compound 0.006325 µM)	relative viability (YM155 + Olaparib; first compound 0.02 µM)	relative viability (YM155 + Olaparib; first compound 0.06325 µM)	relative viability (YM155 + Alpelisib; first compound 0.006325 µM)
NCI-H1666	0.691	0.634	0.727	0.38	0.639	0.629	0.646	0.686	0.664	0.822	1.11	0.844	0.754	0.741	0.769	0.679	
NCI-H1651	0.718	0.831	0.781	0.274	0.821	0.641	0.686	0.685	0.33	0.979	0.925	0.694	0.189	0.19	0.206	0.173	0.904
NCI-H2347	0.604	0.923	0.94	1.03	1.1	0.531	0.59	0.786	0.567	1.01	0.987	0.67	0.536	0.489	0.618	0.498	0.896
NCI-H1944	0.768	0.868	0.707	0.792	0.721	0.253	0.279	0.259	0.232	0.83	0.803	0.905	0.401	0.364	0.404	0.406	0.756
HCC-366	0.931	0.992	1.06	0.897	1	0.142	0.136	0.135	0.113	0.365	0.375	0.496	0.368	0.329	0.375	0.275	0.428
NCI-H1734	0.869	1.1	1.08	0.873	0.998	0.268	0.234	0.26	0.281	0.63	0.697	0.776	0.53	0.607	0.656	0.63	0.658
201T	1.09	1.04	1.07	1.06	1.05	0.916	0.961	0.955	0.974	1.01	1.05	1.02	0.813	0.845	0.826	0.874	1.03
PC-3 [JPC-3]	0.416	0.472	0.471	0.481	0.415	0.879	0.984	0.869	0.941	1.02	1.07	0.972	1.12	1.19	1.1	0.796	1.02
HCC-827	0.196	0.22	0.19	0.164	0.214	0.421	0.416	0.448	0.475	0.982	1.06	0.993	0.708	0.649	0.654	0.702	1.04
LXF-289	0.788	0.838	0.932	0.923	0.892	0.186	0.214	0.205	0.183	1.02	0.967	0.939	0.984	1.04	1.04	0.947	1.04
NCI-H520	0.649	0.766	0.828	0.85	0.591	0.432	0.496	0.48	0.377	0.858	0.853	0.871	0.362	0.441	0.379	0.294	1
RERF-LC-KJ	0.883	0.766	0.864	0.864	0.777	0.375	0.482	0.563	0.468	0.806	0.771	0.842	0.825	0.801	0.95	0.858	0.705
ABC-1	1.11		1.17	1.02	1.29	0.163	0.164	0.137	0.151	0.85	0.264	0.243		0.51	0.28	0.261	0.368
NCI-H3122	1.08	0.903	1.04	1.05	1.04	0.43	0.423	0.396	0.273	0.67	0.751	0.82	0.623	0.74	0.679	0.627	0.665
HARA	0.748	0.551	0.827	1.08	0.736	0.0954	0.122	0.13	0.121	0.876	0.842	0.86		0.815	0.76	0.935	0.961
SK-LU-1	0.704	0.867	1.3	0.774	0.725	0.293	0.357	0.418	0.341	1.03	1.07	1.01	0.422	0.442	0.516	0.327	1.09

Cell Line	relative viability (Quizartinib + Lapatinib; first compound 0.001 µM)	relative viability (Quizartinib + Lapatinib; first compound 0.003162 µM)	relative viability (Quizartinib + Lapatinib; first compound 0.01 µM)	relative viability (Quizartinib + Lapatinib; first compound 0.03162 µM)	relative viability (Quizartinib + Lapatinib; first compound 0.1 µM)	relative viability (YM155 + Tozasertib; first compound 0.002 µM)	relative viability (YM155 + Tozasertib; first compound 0.006325 µM)	relative viability (YM155 + Tozasertib; first compound 0.02 µM)	relative viability (YM155 + Tozasertib; first compound 0.06325 µM)	relative viability (YM155 + Alpelisib; first compound 0.002 µM)	relative viability (YM155 + Alpelisib; first compound 0.02 µM)	relative viability (YM155 + Alpelisib; first compound 0.06325 µM)	relative viability (YM155 + Olaparib; first compound 0.002 µM)	relative viability (YM155 + Olaparib; first compound 0.006325 µM)	relative viability (YM155 + Olaparib; first compound 0.02 µM)	relative viability (YM155 + Olaparib; first compound 0.06325 µM)	relative viability (YM155 + Alpelisib; first compound 0.006325 µM)
LK-2	0.839	0.854	1	0.723	0.761	0.154	0.188	0.208	0.203	1.17	1.13	1.12	0.644	0.71	0.797	0.75	1.05
NCI-H596	1.06	0.985	1.08	1.08	1.17	0.847	0.811	0.953	1.03		0.499	0.49	0.719	0.669	0.697	0.622	0.514
UMC-11	0.499	0.945	1.14	0.889	1.02	0.209	0.199	0.213	0.212	1.03	1	1.08	0.389	0.374	0.595	0.386	1.06
NCI-H1355	0.979	0.992	1	0.914	1.06	0.617	0.518	0.654	0.597	0.846	0.932	0.963	0.751	0.731	0.8	0.725	0.869
NCI-H2228	1.11	1.1	1.47	0.764	1	0.265	0.26	0.213	0.316	0.764	0.645	0.657	0.67	0.597	0.809	0.581	0.782
NCI-H2170	0.257	0.273	0.253	0.262	0.272	0.831	0.792	0.784	0.722	0.866	0.889	0.877	0.605	0.583	0.668	0.62	0.855
NCI-H727	0.876		0.929	0.875	0.725	0.38	0.721	0.615	0.7	0.499	0.586	0.575	0.775	0.722	0.66	0.729	0.495
NCI-H460	0.924	1.03	1.26		0.205	0.604	0.468	0.535	0.413	0.433	0.436	0.452	0.411	0.444	0.417	0.384	0.498
NCI-H647	0.966	1.1	1.12	0.97	0.985	0.317	0.302	0.401	0.303	0.989	1.09	0.901	0.506	0.64	0.516	0.295	1.11
NCI-H358	0.349	0.516	0.412		0.39	0.111	0.126	0.103	0.0626	0.801	0.911	0.283	0.574	0.625	0.529	0.156	0.871
HOP-62	0.745	0.957	0.993	0.978	0.888	0.384	0.383	0.391	0.354	1.14	0.633	0.775	0.668	0.35	0.419	0.29	0.921
HCC-44	0.776	1.02	0.991	1.09	0.938	1.01	1.01	0.888	0.273	0.749	0.813	0.862	0.969	1.03	0.992	1.04	0.766
NCI-H1993	0.786	0.846	0.72	0.746	0.891	0.582	0.646	0.498	0.452	0.691	0.673	0.657	0.765	1.01	0.79	0.465	0.726
A-427	0.714	0.938	1.04	0.998	0.986	0.238	0.191	0.243	0.177	1.08	1.09	1.12	0.735	0.556	0.714	0.294	1.06
COR-L23	1.03	0.856	1.14	0.613	0.928	0.201	0.175	0.133	0.126	0.646	0.449	0.154	0.322	0.298	0.187	0.147	0.671

— the supplement of paper PMC10307832
